ChEMBL document CHEMBL1123971, “Synthesis, platelet aggregation inhibitory activity, and in vivo antithrombotic activity of new 1,4-dihydropyridines” (J Med Chem, 1988)

What was measured:
Type in all cases: functional
Felis catus [1] = assay: Effect of intraperitoneal infusion on respiration frequency in Anesthetized cats at a dose of 200 mg/kg at 90 min
Felis catus [2] = assay: Effect of intraperitoneal infusion on respiration frequency in Anesthetized cats at a dose of 200 mg/kg at 120 min
Cavia porcellus [3] = organism: Cavia porcellus; assay: Chronotropic activity on left and right guinea pig artia (beats/min), at 90 min
Felis catus [4] = assay: Effect of intraperitoneal infusion on systolic pressure in Anesthetized cats at a dose of 200 mg/kg at 150 min
Felis catus [5] = assay: Effect of intraperitoneal infusion on respiration frequency in Anesthetized cats at a dose of 200 mg/kg at 150 min
Cavia porcellus [6] = organism: Cavia porcellus; assay: Effect on guinea pig artia (beats/min), at the a dose of 10e-9 M
Felis catus [7] = assay: Effect of intraperitoneal infusion on systolic pressure in Anesthetized cats at a dose of 200 mg/kg at 105 min
Cavia porcellus [8] = organism: Cavia porcellus; assay: Chronotropic activity on left and right guinea pig artia (beats/min), at 15 min
Oryctolagus cuniculus = organism: Oryctolagus cuniculus; assay: Effect on 35 mM K+-induced contraction on rabbit aorta at a dose of 3*10e-8 mol/L

Compound `CCO/C(O)=C1\C(C)=NC(C)=C(C(=O)OCCN2C(=O)c3ccccc3S2(=O)=O)C1C` (configuration not stated) has a Respiratory frequency (Felis catus [1]) of 12 r.p.m, a Respiratory frequency (Felis catus [2]) of 13 r.p.m and a Beats/min (Cavia porcellus [3]) of 133. For the same compound, the Control (Cavia porcellus [3]) was 97.1%, the Arterial pressure (Felis catus [4]) was 140 mmHg and the Respiratory frequency (Felis catus [5]) was 15 r.p.m. It also gave a Beats/min (Cavia porcellus [6]) of 193, a Control (Cavia porcellus [6]) of 105.6% and an Arterial pressure (Felis catus [7]) of 140 mmHg. For the same compound, the Beats/min (Cavia porcellus [8]) was 138, the Control (Cavia porcellus [8]) was 100.7% and the Inhibition (Oryctolagus cuniculus) was 0%.
